Source: publication PMC10145814 (Viruses, 2023)

Biological target: T1, PI4KB (Homo sapiens, UniProt Q9UBF8)
T1 construct: purified GST-PI4KB (PV5277, Thermo Fisher)
Assay type: biochemical

T1 sequence (Q9UBF8 2-816): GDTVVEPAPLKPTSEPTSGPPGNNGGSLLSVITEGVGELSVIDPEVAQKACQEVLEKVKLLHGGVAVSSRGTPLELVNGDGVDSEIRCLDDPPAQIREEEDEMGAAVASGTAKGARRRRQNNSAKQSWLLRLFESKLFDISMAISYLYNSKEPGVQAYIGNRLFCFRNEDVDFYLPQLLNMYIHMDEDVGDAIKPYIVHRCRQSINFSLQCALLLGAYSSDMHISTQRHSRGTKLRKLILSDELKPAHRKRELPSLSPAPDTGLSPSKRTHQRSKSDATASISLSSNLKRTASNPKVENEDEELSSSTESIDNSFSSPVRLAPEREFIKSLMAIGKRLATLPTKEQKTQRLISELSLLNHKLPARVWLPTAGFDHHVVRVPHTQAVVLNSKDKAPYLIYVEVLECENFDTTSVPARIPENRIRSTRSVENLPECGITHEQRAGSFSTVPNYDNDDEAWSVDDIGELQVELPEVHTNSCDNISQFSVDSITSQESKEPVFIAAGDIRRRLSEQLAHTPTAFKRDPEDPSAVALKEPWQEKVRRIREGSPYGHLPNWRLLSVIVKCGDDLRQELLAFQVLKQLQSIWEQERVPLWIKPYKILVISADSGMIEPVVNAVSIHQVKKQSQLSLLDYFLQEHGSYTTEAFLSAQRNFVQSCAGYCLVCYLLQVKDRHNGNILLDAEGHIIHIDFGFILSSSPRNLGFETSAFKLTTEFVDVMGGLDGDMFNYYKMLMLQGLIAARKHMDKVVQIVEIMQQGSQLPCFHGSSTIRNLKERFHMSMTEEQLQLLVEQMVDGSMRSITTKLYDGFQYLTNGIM

COc1cc(/C=C/C(=O)OC[C@H]2O[C@H](O[C@]3(COC(=O)/C=C/c4ccc(O)cc4)O[C@H](COC(=O)/C=C/c4ccc(O)cc4)[C@@H](O)[C@@H]3OC(=O)/C=C/c3ccc(O)cc3)[C@H](O)[C@@H](O)[C@@H]2O)ccc1O [VCB, vanicoside B]
IC50: 5 µM
